Measurements as given in patent US3961041A, “Effervescent enteric coated L-dopa formulation and method of using the same” (priority 1974, dated 1976).

How the values were obtained:
[1] = cited from earlier work
decarboxylase enzymes = conditions: cited from earlier work
Parkinson's Disease = conditions: in vivo, po; cited from earlier work
[2] = Absorption of L-DOPA from the gastrointestinal tract (inventors' experimentation); assay type: in vivo
Description: As for (1), it has been confirmed that the decomposition of L-DOPA in the stomach is remarkable as shown in numerous reports in the past.
As a result, optimum absorption of the drug is totally incomplete.

[3] = dopamine as metabolite; cited from earlier work

For `N[C@@H](Cc1ccc(O)c(O)c1)C(=O)O` [L-DOPA, 3,4-dihydroxy-L-phenylalanine], the “decomposition in the stomach” value ([1]; in vivo) is given as “remarkable”, the “stability in the gastrointestinal tract, especially in the stomach” value ([1]; in vivo) is given as “unstable” and the “absorption from the gastrointestinal tract (prior art reason)” value ([1]; oral) is given as “poorly absorbed”. For the same compound, the “decarboxylation via decarboxylase enzymes in the intestine” value (decarboxylase enzymes) was “apt to undergo decarboxylation”, the “side effects when massive dosing is administered” value (Parkinson's Disease) was “marked side effects” and the “absorption from the gastrointestinal tract” value ([2]; in vivo) was “almost completely absorbed”. For the same compound, the optimum absorption site ([2]; in vivo) was “small intestine, especially in the upper part thereof” and the “absorption, oral as compared to intravenous” value ([2]; oral vs intravenous) was “not appreciably different”.

In the case of `NCCc1ccc(O)c(O)c1` [dopamine], the “therapeutic effect in the treatment of Parkinson's Disease” value [3] is given as “does not have any therapeutic effect”.
